Key:
[1] = system: interleukin-6 (IL-6); experiment: IL-6 mRNA level detection (RT-PCR) in HAECs; format: cell-based, human; details: FIG. 2
Method: (§1) Human aortic endothelial cells (HAECs) were purchased from Shanghai Shanghai Bioleaf Biotech Co., Ltd. Palmitic acid (PA) was purchased from SIGMA Company. A palmitic acid solution having a concentration of 500 μM was prepared by dissolving palmitic acid in water. A cell culture incubator was adopted to culture the cells in a temperature-constant, humidified, sterile condition. The cells were cultured in wells of culture plates at an atmosphere of 95% air and 5% CO2 at 37° C. in the incubator. The experiments were performed on different experimental groups of cells.
The HAECs that were previously cultured in a 12-well cell culture plate were divided into 4 different experimental groups and respectively applied with HT-HB in different concentrations, 0 μM, 0 μM, 50 μM, 100 μM, all followed with an 24-hour incubation. Then, the last 3 groups of cells were respectively applied with 500 μM palmitic acid, the first was not, all followed with another 24-hour incubation. The detecting of mRNA levels corresponding to interleukin-6 (IL-6) was respectively carried out on each group of cells by using reverse transcription RNA and real-time quantitative polymerase chain reaction (PCR), and the specific method is as follows:
The medium for cell culture in the wells was removed. […] The concentration of the solution was measured by an ultraviolet spectrophotometer. […]

[2] = system: mitochondrial complex I; experiment: Protein detection by Western blot in HAECs, mitochondrial complex I; format: cell-based, human; details: FIG. 3A, 3B
Method: as §1
The HAECs that were previously cultured in a 6-well cell culture plate were divided into 3 different experimental groups, the control (Ctrl) group, the PA group, and the HT-HB+PA group. The cells of the HT-HB+PA group were applied with HT-HB in a concentration of 100 µM followed with an 24-hour incubation. […]
The medium for cell culture in the wells was removed. […] The supernatants were collected, and the proteins therein were quantified by bicinchoninic acid (BCA) assay, and normalized. […]
10 μg of the extracted proteins were subjected to gel electrophoresis with 10% acrylamide gel, and electrophoretic transferred onto a PVDF membrane, which were blocked, and incubated with a primary antibody at 4° C. overnight, free primary antibody was washed away. […] Target proteins were detected by chemiluminescence.

[3] = system: mitochondrial complex II; experiment: Protein detection by Western blot in HAECs, mitochondrial complex II; format: cell-based, human; details: 500 μM palmitic acid 24 h, vs control, FIG. 3A, 3B
Method: Human aortic endothelial cells (HAECs) were purchased from Shanghai Shanghai Bioleaf Biotech Co., Ltd. Palmitic acid (PA) was purchased from SIGMA Company. A palmitic acid solution having a concentration of 500 μM was prepared by dissolving palmitic acid in water. A cell culture incubator was adopted to culture the cells in a temperature-constant, humidified, sterile condition. The cells were cultured in wells of culture plates at an atmosphere of 95% air and 5% CO2 at 37° C. in the incubator. The experiments were performed on different experimental groups of cells. The HAECs that were previously cultured in a 6-well cell culture plate were divided into 3 different experimental groups, the control (Ctrl) group, the PA group, and the HT-HB+PA group. The cells of the HT-HB+PA group were applied with HT-HB in a concentration of 100 µM followed with an 24-hour incubation. Then, the cells of both the PA group and the HT-HB+PA group were applied with 500 μM palmitic acid, all followed with another 24-hour incubation. The protein detection was respectively carried out on each group of cells as follows. The medium for cell culture in the wells was removed. […] The supernatants were collected, and the proteins therein were quantified by bicinchoninic acid (BCA) assay, and normalized. […] Target proteins were detected by chemiluminescence.

[4] = system: Human aortic endothelial cells (HAECs); experiment: MTT assay, cell viability of HAECs; format: cell-based; details: FIG. 1
Method: as §1
The HAECs that were previously cultured in a 12-well cell culture plates were divided into 6 different experimental groups and respectively applied with HT-HB in different concentrations, 0 μM, 1 μM, 10 μM, 50 μM, 100 μM, and 200 μM, all followed with an 24-hour incubation. Then, each of the 6 groups of cells was further divided into two sub groups, one was applied with 500 µM palmitic acid, the other was not, all followed with another 24-hour incubation.
An MTT assay was performed to all groups of cells. […] The absorbance was measured at a wavelength of 490 nm in a spectrophotometer. The absorbance of this colored solution can be quantified by measuring at a certain wavelength (usually between 500 and 600 nm) by a spectrophotometer.

SMILES	increase of mRNA level corresponding to IL-6 ([1]; HAECs, 500 μM palmitic acid 24 h, vs control group)	relative protein expression level of mitochondrial complex I ([2]; 500 μM palmitic acid 24 h, vs control)	relative protein expression level of mitochondrial complex II [3]	relative cell viability ([4]; HAECs not treated with palmitic acid, HT-HB 1 μM to 100 μM, vs cells without HT-HB (control))	relative cell viability ([4]; HAECs pretreated with HT-HB 1 μM to 100 μM for 24 h, then 500 µM palmitic acid 24 h, vs palmitic acid treated cells without HT-HB)	mRNA level corresponding to IL-6 ([1]; HAECs pretreated with HT-HB 100 M for 24 h, then 500 μM palmitic acid 24 h)	relative protein expression level of mitochondrial complex I ([2]; HT-HB 100 M 24 h, then 500 μM palmitic acid 24 h, vs PA group)
CCCCCCCCCCCCCCCC(=O)O [palmitic acid, reference compound]	about 10 times	reducing the expression	reducing the expression	–	–	–	–
CC(O)CC(=O)OCCc1ccc(O)c(O)c1 (stereo not shown) [HT-HB, 2-(3,4-dihydroxyphenyl)ethyl 3-hydroxybutanoate]	–	–	–	higher viabilities	higher viabilities	significantly decreased	significantly increasing the expression
